DC50 data for 14 compounds are collected here from patent publication US12077555B2, “STAT degraders and uses thereof” (Kymera Therapeutics, Inc., priority 2019, dated 2024).

Molecules are shown by their SMILES.

STAT3, sequence (P40763 whole entry): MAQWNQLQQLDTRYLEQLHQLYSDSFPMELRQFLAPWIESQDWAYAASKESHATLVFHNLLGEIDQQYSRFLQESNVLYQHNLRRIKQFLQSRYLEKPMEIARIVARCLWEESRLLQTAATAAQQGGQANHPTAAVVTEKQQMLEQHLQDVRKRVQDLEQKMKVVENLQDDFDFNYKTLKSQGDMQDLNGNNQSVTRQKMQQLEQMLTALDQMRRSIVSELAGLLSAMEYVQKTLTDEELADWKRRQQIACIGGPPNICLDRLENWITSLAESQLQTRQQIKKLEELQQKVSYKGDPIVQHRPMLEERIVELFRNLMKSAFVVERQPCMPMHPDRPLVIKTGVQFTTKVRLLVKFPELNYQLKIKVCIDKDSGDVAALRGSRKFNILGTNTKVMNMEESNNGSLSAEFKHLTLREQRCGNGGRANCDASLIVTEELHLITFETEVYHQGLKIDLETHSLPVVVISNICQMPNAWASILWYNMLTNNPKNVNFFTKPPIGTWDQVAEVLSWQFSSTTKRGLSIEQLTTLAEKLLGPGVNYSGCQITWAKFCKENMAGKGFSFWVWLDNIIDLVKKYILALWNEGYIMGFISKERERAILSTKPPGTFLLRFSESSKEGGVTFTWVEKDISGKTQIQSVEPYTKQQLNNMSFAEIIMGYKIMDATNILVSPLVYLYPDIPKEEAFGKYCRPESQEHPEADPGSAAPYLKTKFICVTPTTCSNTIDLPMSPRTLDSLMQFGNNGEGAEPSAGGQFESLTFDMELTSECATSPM

The assay concerns the target STAT3 (Homo sapiens, UniProt P40763). The assay can be described thus: STAT3 HiBiT degradation assay in transfected A549 cells. It counts as cell-based. The arrangement: expressed in transfected cells; host or cells: A549. The note with it: A549, 24 h; read-out: STAT3 HiBiT A549 degradation 24 h: Average external-Abs DC50. In outline: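 Degradation read as HiBiT-tagged STAT3 luminescence (Nano-Glo lytic reagent, 10 min, room temperature) following 24 h compound treatment of transfected A549 cells at 3-fold, 10 points. Percent remaining signal computed against controls and fitted with a four-parameter logistic; DC50 reported as letter bins (A <0.01 to D >1.0 µM).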
(The HiBiT peptide binds its large partner to form an active luciferase.)
On to `Cc1ncsc1-c1ccc([C@H](C)NC(=O)[C@@H]2C[C@@H](O)CN2C(=O)[C@@H](NC(=O)CCCCc2ccc(CO[C@H](C)[C@H](CCC(N)=O)NC(=O)[C@@H]3Cc4cccc5c4N3C(=O)[C@@H](NC(=O)c3cc4cc(C(=O)P(=O)(O)O)ccc4[nH]3)CC5)cc2)C(C)(C)C)cc1` [Compound I-227], for which the DC50 (commonly the midpoint of the concentration-degradation curve) was 100 to 1000 nM. In the case of `CC(=O)N1CC[C@H]2CC[C@@H](C(=O)N[C@@H](CCC(N)=O)C(=O)NCCCCCCCC(=O)N[C@H](C(=O)N3C[C@H](O)C[C@H]3C(=O)NCc3ccc(-c4scnc4C)cc3)C(C)(C)C)N2C(=O)[C@@H](NC(=O)c2cc3cc(C(=O)P(=O)(O)O)ccc3[nH]2)C1` [Compound I-172, 2-[[(5S,8S,10aR)-3-acetyl-8-[[(1S)-3-carbamoyl-1-[(7-[[(2S)-1-[(2S,4R)-4-hydroxy-2-([[4-(4-methyl-1,3-thiazol-5-yl)phenyl]methyl]carbamoyl)pyrrolidin-1-yl]-3,3-dimethyl-1-oxobutan-2-yl]carbamoyl]heptyl)carbamoyl]propyl]carbamoyl]-6-oxo-octahydropyrrolo[1,2-a][1,5]diazocin-5-yl]carbamoyl]-1H-indole-5-carbonylphosphonic acid], the DC50 was above 1000 nM. On to `Cc1ncsc1-c1ccc(CNC(=O)[C@@H]2C[C@@H](O)CN2C(=O)[C@@H](NC(=O)CCCCCc2cccc(O[C@H](C)[C@H](CCC(N)=O)NC(=O)[C@@H]3Cc4cccc5c4N3C(=O)[C@@H](NC(=O)c3cc4cc(C(=O)P(=O)(O)O)ccc4[nH]3)CC5)c2)C(C)(C)C)cc1` [Compound I-210, 2-[[(2S,11S)-2-[[(3S,4R)-1-carbamoyl-4-[3-(5-[[(2S)-1-[(2S,4R)-4-hydroxy-2-([[4-(4-methyl-1,3-thiazol-5-yl)phenyl]methyl]carbamoyl)pyrrolidin-1-yl]-3,3-dimethyl-1-oxobutan-2-yl]carbamoyl]pentyl)phenoxy]pentan-3-yl]carbamoyl]-12-oxo-1-azatricyclo[6.4.1.0^[4,13]]trideca-4(13),5,7-trien-11-yl]carbamoyl]-1H-indole-5-carbonylphosphonic acid], for which the DC50 was above 1000 nM.

On to `Cc1ncsc1-c1ccc([C@H](C)NC(=O)[C@@H]2C[C@@H](O)CN2C(=O)[C@@H](NC(=O)CCCCCc2cccc(NC(=O)[C@H](CCC(N)=O)NC(=O)[C@@H]3Cc4cccc5c4N3C(=O)[C@@H](NC(=O)c3cc4cc(C(=O)P(=O)(O)O)ccc4[nH]3)CC5)c2F)C(C)(C)C)cc1` [Compound I-250, 2-[[(2S,11S)-2-[[(1S)-3-carbamoyl-1-[[2-fluoro-3-(5-[[(2S)-1-[(2S,4R)-4-hydroxy-2-[[(1S)-1-[4-(4-methyl-1,3-thiazol-5-yl)phenyl]ethyl]carbamoyl]pyrrolidin-1-yl]-3,3-dimethyl-1-oxobutan-2-yl]carbamoyl]pentyl)phenyl]carbamoyl]propyl]carbamoyl]-12-oxo-1-azatricyclo[6.4.1.0^[4,13]]trideca-4(13),5,7-trien-11-yl]carbamoyl]-1H-indole-5-carbonylphosphonic acid], for which the DC50 fell in the range of 10 to 100 nM. The value for `Cc1ccc(OC[C@H](CCC(N)=O)NC(=O)[C@@H]2Cc3cccc4c3N2C(=O)[C@@H](NC(=O)c2cc3cc(C(=O)P(=O)(O)O)ccc3[nH]2)CC4)cc1CCCCCC(=O)N[C@H](C(=O)N1C[C@H](O)C[C@H]1C(=O)N[C@@H](C)c1ccc(-c2scnc2C)cc1)C(C)(C)C` [Compound I-212, 2-[[(2S,11S)-2-[[(2S)-4-carbamoyl-1-[3-(5-[[(2S)-1-[(2S,4R)-4-hydroxy-2-[[(1S)-1-[4-(4-methyl-1,3-thiazol-5-yl)phenyl]ethyl]carbamoyl]pyrrolidin-1-yl]-3,3-dimethyl-1-oxobutan-2-yl]carbamoyl]pentyl)-4-methylphenoxy]butan-2-yl]carbamoyl]-12-oxo-1-azatricyclo[6.4.1.0^[4,13]]trideca-4(13),5,7-trien-11-yl]carbamoyl]-1H-indole-5-carbonylphosphonic acid] was 10 to 100 nM; that for `Cn1c(=O)n(C2CCC(=O)NC2=O)c2ccc(CC[C@H]3CC[C@H](C(=O)N4CC[C@H]5CC[C@@H](C(=O)N[C@@H](CCC(N)=O)C(=O)NC(c6ccccc6)c6ccccc6)N5C(=O)[C@@H](NC(=O)c5cc6cc(C(=O)P(=O)(O)O)ccc6[nH]5)C4)CC3)cc21` (stereo partly drawn) [Compound I-203, 2-[[(5S,8S,10aR)-8-[[(1S)-3-carbamoyl-1-(diphenylmethylcarbamoyl)propyl]carbamoyl]-6-oxo-3-[(1r,4r)-4-[2-[1-(2,6-dioxopiperidin-3-yl)-3-methyl-2-oxo-1,3-benzodiazol-5-yl]ethyl]cyclohexanecarbonyl]-octahydropyrrolo[1,2-a][1,5]diazocin-5-yl]carbamoyl]-1H-indole-5-carbonylphosphonic acid] was 10 to 100 nM; that for `Cc1ncsc1-c1ccc([C@H](C)NC(=O)[C@@H]2C[C@@H](O)CN2C(=O)[C@@H](NC(=O)CCCCCc2cc(F)cc(OC[C@H](CCC(N)=O)NC(=O)[C@@H]3Cc4cccc5c4N3C(=O)[C@@H](NC(=O)c3cc4cc(C(=O)P(=O)(O)O)ccc4[nH]3)CC5)c2)C(C)(C)C)cc1` [Compound I-216, 2-[[(2S,11S)-2-[[(2S)-4-carbamoyl-1-[3-fluoro-5-(5-[[(2S)-1-[(2S,4R)-4-hydroxy-2-[[(1S)-1-[4-(4-methyl-1,3-thiazol-5-yl)phenyl]ethyl]carbamoyl]pyrrolidin-1-yl]-3,3-dimethyl-1-oxobutan-2-yl]carbamoyl]pentyl)phenoxy]butan-2-yl]carbamoyl]-12-oxo-1-azatricyclo[6.4.1.0^[4,13]]trideca-4(13),5,7-trien-11-yl]carbamoyl]-1H-indole-5-carbonylphosphonic acid] was 10 to 100 nM. The value for `Cc1ncsc1-c1ccc(CNC(=O)[C@@H]2C[C@@H](O)CN2C(=O)[C@@H](NC(=O)CCCCCCCC(=O)N2CC[C@H]3CC[C@@H](C(=O)N[C@@H](CCC(N)=O)C(=O)NC(c4ccccc4)c4ccccc4)N3C(=O)[C@@H](NC(=O)c3cc4cc(C(=O)P(=O)(O)O)ccc4[nH]3)C2)C(C)(C)C)cc1` [Compound I-147] was above 1000 nM; that for `Cn1c(=O)n(C2CCC(=O)NC2=O)c2ccc(CC[C@H]3CC[C@@H](C(=O)N4CC[C@H]5CC[C@@H](C(=O)N[C@@H](CCC(N)=O)C(=O)NC(c6ccccc6)c6ccccc6)N5C(=O)[C@@H](NC(=O)c5cc6cc(C(=O)P(=O)(O)O)ccc6[nH]5)C4)CC3)cc21` (some centres unmarked) [Compound I-202] was 10 to 100 nM; that for `Cn1c(=O)n(C2CCC(=O)NC2=O)c2ccc(NCCCCCC(=O)N3CC[C@H]4CC[C@@H](C(=O)N[C@@H](CCC(N)=O)C(=O)NC(c5ccccc5)c5ccccc5)N4C(=O)[C@@H](NC(=O)c4cc5cc(C(=O)P(=O)(O)O)ccc5[nH]4)C3)cc21` (stereo partly drawn) [Compound I-132, 2-[[(5S,8S,10aR)-8-[[(1S)-3-carbamoyl-1-(diphenylmethylcarbamoyl)propyl]carbamoyl]-3-(6-[[1-(2,6-dioxopiperidin-3-yl)-3-methyl-2-oxo-1,3-benzodiazol-5-yl]amino]hexanoyl)-6-oxo-octahydropyrrolo[1,2-a][1,5]diazocin-5-yl]carbamoyl]-1H-indole-5-carbonylphosphonic acid] was 100 to 1000 nM.

For the compound `Cn1c(=O)n(C2CCC(=O)NC2=O)c2ccc(C[C@H]3CC[C@@H](CC(=O)N4CC[C@H]5CC[C@@H](C(=O)N[C@@H](CCC(N)=O)C(=O)NCc6cccc7ccccc67)N5C(=O)[C@@H](NC(=O)c5cc6cc(C(=O)P(=O)(O)O)ccc6[nH]5)C4)CC3)cc21` (stereo partly drawn) [Compound I-197, 2-[[(5S,8S,10aR)-8-[[(1S)-3-carbamoyl-1-[(naphthalen-1-ylmethyl)carbamoyl]propyl]carbamoyl]-6-oxo-3-[2-[(1S,4S)-4-[[1-(2,6-dioxopiperidin-3-yl)-3-methyl-2-oxo-1,3-benzodiazol-5-yl]methyl]cyclohexyl]acetyl]-octahydropyrrolo[1,2-a][1,5]diazocin-5-yl]carbamoyl]-1H-indole-5-carbonylphosphonic acid], the DC50 lay within 100 to 1000 nM.

Turning to `Cn1c(=O)n(C2CCC(=O)NC2=O)c2cccc(CCCC(=O)N3CC[C@H]4CC[C@@H](C(=O)N[C@@H](CCC(N)=O)C(=O)NC(c5ccccc5)c5ccccc5)N4C(=O)[C@@H](NC(=O)c4cc5cc(C(=O)P(=O)(O)O)ccc5[nH]4)C3)c21` (stereo partly drawn) [Compound I-122, 2-[[(5S,8S,10aR)-8-[[(1S)-3-carbamoyl-1-(diphenylmethylcarbamoyl)propyL]carbamoyl]-3-[4-[1-(2,6-dioxopiperidin-3-yl)-3-methyl-2-oxo-1,3-benzodiazol-4-yl]butanoyl]-6-oxo-octahydropyrrolo[1,2-a][1,5]diazocin-5-yl]carbamoyl]-1H-indole-5-carbonylphosphonic acid], the DC50 was above 1000 nM. The value for `Cc1ncsc1-c1ccc(CNC(=O)[C@@H]2C[C@@H](O)CN2C(=O)[C@@H](NC(=O)CC2CCN(c3ccc(CO[C@H](C)[C@H](CCC(N)=O)NC(=O)[C@@H]4Cc5cccc6c5N4C(=O)[C@@H](NC(=O)c4cc5cc(C(=O)P(=O)(O)O)ccc5[nH]4)CC6)cc3)CC2)C(C)(C)C)cc1` [Compound I-162, diammonium 2-[[(2S,11S)-2-[[(3S,4R)-1-carbamoyl-4-([4-[4-([[(2S)-1-[(2S,4R)-4-hydroxy-2-([[4-(4-methyl-1,3-thiazol-5-yl)phenyl]methyl]carbamoyl)pyrrolidin-1-yl]-3,3-dimethyl-1-oxobutan-2-yl]carbamoyl]methyl)piperidin-1-yl]phenyl]methoxy)pentan-3-yl]carbamoyl]-12-oxo-1-azatricyclo[6.4.1.0^[4,13]]trideca-4(13),5,7-trien-11-yl]carbamoyl]-1H-indole-5-carbonylphosphonate] was above 1000 nM; that for `Cc1ncsc1-c1ccc([C@H](C)NC(=O)[C@@H]2C[C@@H](O)CN2C(=O)[C@@H](NC(=O)CCCCCc2cccc(NC(=O)[C@H](CCC(N)=O)NC(=O)[C@@H]3Cc4cccc5c4N3C(=O)[C@@H](NC(=O)c3cc4cc(C(=O)P(=O)(O)O)ccc4[nH]3)CC5)c2)C(C)(C)C)cc1` [Compound I-209] was 10 to 100 nM.
